In US20050130252A1, “Stabilized susceptibility tests of aerobic pathogens” (Wyeth Holdings Corporation, priority 2003, published 2005):
In brackets after ≈: the same amount, converted by molar mass. Read-outs that look alike come from different tables or passages of the source.

What was measured:
S. aureus ATCC 29213 = assay: Broth microdilution MIC; assay type: cell-based, Staphylococcus aureus; settings: for MIC: Staphylococcus aureus
Description: (§1) The process for preparing susceptibility test medium are the following steps: • a. Preparing Mueller Hinton Broth II medium by adding 22 grams powdered media to 1.0 liter distilled water; • b. Autoclaving (121° C., 15 psi, 15 minutes) and cooling the medium; • c. Adding Oxyrase® up to about 10% final volume and keeping at 35-37° C. in an incubator for 30 minutes; • d. Adding about 50 μL to each well of a 96 well microtiter plate; • e. Weighing drug and adding broth to drug to bring up to about (standard 128 μg/ml); • f. Adding 50 μL of the drug to the first column of the titer plate; • g. Diluting by two-fold serial diluting across or down the plate. • h. Preparing a Prompt™ inoculum at 10^8 CFU/ml; • i. Diluting inoculum 1:100 in the broth at […] in 9.9 ml (1:100) is 10^6 colony forming units (CFU) forming the adjusted inoculum; • j. Adding 50 μL of the adjusted inoculum to the wells of the microtiter plate; • k. Incubating the plates at 35-37° C. for 18-22 hours; and • l. Reading, with the unaided eye, the MIC.
(§2) The in vitro activities of tigecycline and control antibiotics were determined by the broth microdilution method as recommended by the NCCLS. (National Committee for Clinical Laboratory Standards, 2003. Methods for Dilution Antimicrobial Susceptibility Tests for Bacteria That Grow Aerobically; Approved Standards: M7-A6, Sixth ed, vol. 23., National Committee for Clinical Laboratory Standards Wayne, Pa.) was used for the standard procedures. MBH with 5% lysed horse blood was used for testing S. pneumoniae and Haemophilus Test Medium was used for testing H. influenzae. Oxyrase® (Oxyrase Inc, Mansfield, Ohio) was used according to the manufacturer's instructions by adding 1 ml of Oxyrase® to 50 ml of media. Media age studies were performed by preparing MHB in multiple flasks, then storing the media under various conditions. MICs were usually performed in duplicate on each day of testing. Storage under anaerobic conditions was conducted in an anaerobic chamber (MACS MG 1000, Don Whitley Scientific LTD). The pH of the media was determined by pH meter (Corning 430). A comparison of the in vitro activity of tigecycline by agar and broth dilution methodolgies with and without Oxyrase® against clinical isolates is shown in Table 1.

S. aureus ATCC 25923 = assay: Broth microdilution MIC; assay type: cell-based, Staphylococcus aureus; settings: Staphylococcus aureus, ATCC25923, read-out: Minimal Inhibitory Concentration, S. aureus ATCC 25923
Description: as §1, §2

[1] = Table 8, S. aureus ATCC 29213, Mueller Hinton Broth + Oxyrase, n = 240
[2] = Table 8, S. aureus ATCC 29213, Mueller Hinton Broth, n = 320
[3] = Table 9, S. aureus ATCC 29213, Mueller Hinton Broth + Oxyrase, n = 29
[4] = Table 9, S. aureus ATCC 29213, Mueller Hinton Broth, n = 131

In the case of CN(C)c1cc(NC(=O)CNC(C)(C)C)c(O)c2c1C[C@H]1C[C@H]3[C@H](N(C)C)C(O)=C(C(N)=O)C(=O)[C@@]3(O)C(O)=C1C2=O [Tigecycline, tigecycline], the MIC (S. aureus ATCC 29213; ATCC29213, read-out: Minimal Inhibitory Concentration (modal value), S. aureus ATCC 29213, Aged media, N = 8) is reported as 0.5 mg/L (≈ 0.854 µM), the MIC (S. aureus ATCC 29213; ATCC29213, read-out: Minimal Inhibitory Concentration (modal value), S. aureus ATCC 29213, Fresh Media + Oxyrase, N = 8) is reported as 0.12 mg/L and the MIC (S. aureus ATCC 29213; ATCC29213, read-out: Minimal Inhibitory Concentration (modal value), S. aureus ATCC 29213, Freshly Prepared Media, N = 8) is reported as 0.25 mg/L (≈ 0.427 µM). For the same molecule, the MIC (S. aureus ATCC 29213; ATCC29213, read-out: Minimal Inhibitory Concentration, S. aureus ATCC 29213, Aged Media + Oxyrase, N = 8) was 0.12 to 0.25 mg/L, the MIC (S. aureus ATCC 29213; ATCC29213, read-out: Minimal Inhibitory Concentration, S. aureus ATCC 29213, Aged media, N = 8) was 0.5 mg/L (≈ 0.854 µM) and the MIC (S. aureus ATCC 29213; ATCC29213, read-out: Minimal Inhibitory Concentration, S. aureus ATCC 29213, Commercially Prepared media, N = 4) was 0.25 mg/L (≈ 0.427 µM). It also gave an MIC (S. aureus ATCC 29213; ATCC29213, read-out: Minimal Inhibitory Concentration, S. aureus ATCC 29213, Fresh Media + Oxyrase, N = 8) of 0.12 to 0.25 mg/L, an MIC (S. aureus ATCC 29213; ATCC29213, read-out: Minimal Inhibitory Concentration, S. aureus ATCC 29213, Freshly Prepared Media, N = 8) of 0.25 mg/L (≈ 0.427 µM) and an MIC (S. aureus ATCC 29213; ATCC29213, read-out: Minimal Inhibitory Concentration, S. aureus ATCC 29213, Freshly Prepared media, N = 4) of 0.06 to 0.12 mg/L (≈ 0.102 to 0.205 µM). For the same molecule, the MIC (S. aureus ATCC 29213; ATCC29213, read-out: Minimal Inhibitory Concentration, S. aureus ATCC 29213, MHB II + 0.05% Catalase) was 0.5 mg/L, the MIC (S. aureus ATCC 29213; ATCC29213, read-out: Minimal Inhibitory Concentration, S. aureus ATCC 29213, MHB II + 0.05% L-ascorbic Acid) was 2 mg/L and the MIC (S. aureus ATCC 29213; ATCC29213, read-out: Minimal Inhibitory Concentration, S. aureus ATCC 29213, MHB II + 0.05% L-cysteine) was 0.25 mg/L. For the same molecule, the MIC (S. aureus ATCC 29213; ATCC29213, read-out: Minimal Inhibitory Concentration, S. aureus ATCC 29213, MHB II + 0.05% Thioglycolate) was 0.25 mg/L, the MIC (S. aureus ATCC 29213; ATCC29213, read-out: Minimal Inhibitory Concentration, S. aureus ATCC 29213, MHB II + 2% Oxyrase) was 0.12 mg/L and the MIC (S. aureus ATCC 29213; ATCC29213, read-out: Minimal Inhibitory Concentration, S. aureus ATCC 29213, Mueller Hinton Broth II (Fresh)) was 0.25 mg/L (≈ 0.427 µM). The MIC (S. aureus ATCC 29213; ATCC29213, read-out: Minimal Inhibitory Concentration, S. aureus ATCC 29213, Mueller Hinton Broth II (MHB II)) was 0.25 to 0.5 mg/L (≈ 0.427 to 0.854 µM), the MIC (S. aureus ATCC 29213; ATCC29213, read-out: Minimal Inhibitory Concentration, S. aureus ATCC 29213, media Aged Anaerobic, N = 4) was 0.06 to 0.12 mg/L (≈ 0.102 to 0.205 µM) and the “Number of Occurrences of MIC 0.06 ug/ml” value (S. aureus ATCC 29213; [1]) was 14. For the same molecule, the “Number of Occurrences of MIC 0.12 ug/ml” value (S. aureus ATCC 29213; [1]) was 203, the “Number of Occurrences of MIC 0.25 ug/ml” value (S. aureus ATCC 29213; [1]) was 22 and the “Number of Occurrences of MIC 0.5 ug/ml” value (S. aureus ATCC 29213; [1]) was 1. The “Number of Occurrences of MIC 0.12 ug/ml” value (S. aureus ATCC 29213; [2]) was 1, the “Number of Occurrences of MIC 0.25 ug/ml” value (S. aureus ATCC 29213; [2]) was 219 and the “Number of Occurrences of MIC 0.5 ug/ml” value (S. aureus ATCC 29213; [2]) was 29. For the same molecule, the “Number of Occurrences of MIC 1 ug/ml” value (S. aureus ATCC 29213; [2]) was 62, the “Number of Occurrences of MIC 2 ug/ml” value (S. aureus ATCC 29213; [2]) was 9 and the “Number of Occurrences of MIC 0.06 ug/ml” value (S. aureus ATCC 29213; [3]) was 2. The “Number of Occurrences of MIC 0.12 ug/ml” value (S. aureus ATCC 29213; [3]) was 15, the “Number of Occurrences of MIC 0.25 ug/ml” value (S. aureus ATCC 29213; [3]) was 12 and the “Number of Occurrences of MIC 0.06 ug/ml” value (S. aureus ATCC 29213; [4]) was 1. For the same molecule, the “Number of Occurrences of MIC 0.12 ug/ml” value (S. aureus ATCC 29213; [4]) was 27, the “Number of Occurrences of MIC 0.25 ug/ml” value (S. aureus ATCC 29213; [4]) was 78 and the “Number of Occurrences of MIC 0.5 ug/ml” value (S. aureus ATCC 29213; [4]) was 25. For the same molecule, the MIC (S. aureus ATCC 25923; 2% Oxyrase) was 0.06 mg/L (≈ 0.102 µM), the MIC (S. aureus ATCC 25923; MHB II + 0.05% Sodium Pyruvate) was 0.25 mg/L and the MIC (S. aureus ATCC 25923; No Oxyrase) was 0.25 mg/L (≈ 0.427 µM).
